In test [1] the test system is natural pigmentation of the tail of SKH HR2 mice. The test can be described thus: Depigmenting activity on natural pigmentation, tail of non-irradiated SKH HR2 mice (clinical pigmentation score). The class given is in vivo. To be noted: non-irradiated SKH HR2 mouse tail, hydroquinone 3%, adapalene 0.1% in acetone, topical, 5 days per week for 8 weeks, score 0 to -4.
Method: The depigmenting activity is measured on the natural pigmentation after application of the test product to the tail of non-irradiated animals.
The treatment is carried out for 5 days per week for 8 weeks. […] On the days for irradiation, the treatment is applied after irradiation.
The evaluation is made by different clinical observations: once per week before irradiation, the pigmentation is evaluated by virtue of a score on a scale from 0 to 4. The distribution of the scores is the following: • −0: natural pigmentation • depigmentation scale: scores −1 to −4 • −1: light depigmentation • −2: moderate depigmentation • −3: marked depigmentation • −4: total depigmentation • pigmentation scale: scores 1 to 4 • 1: light pigmentation • 2: moderate pigmentation • 3: marked pigmentation • 4: intense pigmentation
Test [2] concerns UV-induced pigmentation of the tail of SKH HR2 mice. Conditions: SKH HR2 mouse tail irradiated with UV-B 90 mJ/cm^2 3 times per week for 8 weeks; hydroquinone 3%, adapalene 0.1% topical; score 1 to 4.
Method: The depigmenting activity is measured on the natural pigmentation after application of the test product to the tail of non-irradiated animals. The anti-pigmenting activity is measured by the inhibition of the induction of the UV-induced pigmentation: the test product is applied to the tail of animals irradiated with UV-B. The treatment is carried out for 5 days per week for 8 weeks. […] On the days for irradiation, the treatment is applied after irradiation. The animals are irradiated 3 times per week for 8 weeks (Monday, Wednesday, Friday) at the dose of 90 mJ/cm^2 of UV-B. The evaluation is made by different clinical observations: once per week before irradiation, the pigmentation is evaluated by virtue of a score on a scale from 0 to 4. The distribution of the scores is the following: • −0: natural pigmentation • depigmentation scale: scores −1 to −4 • −1: light depigmentation • −2: moderate depigmentation • −3: marked depigmentation • −4: total depigmentation • pigmentation scale: scores 1 to 4 • 1: light pigmentation • 2: moderate pigmentation • 3: marked pigmentation • 4: intense pigmentation

The structures appear in SMILES notation.

On to `COc1ccc(-c2ccc3cc(C(=O)O)ccc3c2)cc1C12CC3CC(CC(C3)C1)C2` [Adapalene, 6-[3-(1-adamantyl)-4-methoxyphenyl]-2-naphthanoic acid], for which the “Depigmenting activity (effect on natural pigmentation)” value in test [1] was “does not modify the natural pigmentation”; in test [1] (listed as adapalene) it was “no depigmenting activity”.

For the molecule `Oc1ccc(O)cc1` [hydroquinone], the “Anti-pigmenting activity (inhibition of UV-B-induced pigmentation)” value in test [2] is “anti-pigmenting effect at the 6th and at the 7th week (D50) which becomes less marked at the end of the study”. In addition, in test [1], the “Depigmenting activity (effect on natural pigmentation)” value is given as “statistically significant depigmentation at the end of the study”.

The values above are taken from patent publication US20050163731A1, “Skin depigmenting compositions comprising adapalene and at least one depigmenting active agent” (GALDERMA RESEARCH & DEVELOPMENT, S.N.C., priority 2002, published 2005).
